Experimental data reported in US8236339B2, “Therapeutic delivery of carbon monoxide” (priority 2001, dated 2012).
Marks after values point to notes of the source that are not given here.

Columns and labels:
[1] = tested on: deoxymyoglobin (deoxy-Mb); assay: Myoglobin assay: conversion of deoxy-Mb to MbCO on direct addition of metal carbonyl; type: biochemical, horse; settings: direct addition to myoglobin solution (66 μM), no light
Description: The release of CO from metal carbonyl complexes was assessed spectrophotometrically by measuring the conversion of deoxymyoglobin (deoxy-Mb) to carbonmonoxy myoglobin (MbCO). MbCO has a distinctive absorption spectrum between 500 and 600 nm, and changes at 540 nm were used to quantify the amount of CO liberated. Myoglobin solutions (66 μM final concentration) were prepared freshly by dissolving the protein in 0.04 M phosphate buffer (pH 6.8). Sodium dithionite (0.1%) was added to convert myoglobin to deoxy-Mb prior to each reading. All the spectra were measured using a Helios a spectrophotometer.
Various metal carbonyl complexes were tested for their ability to elicit MbCO formation when added directly to a deoxy-Mb solution. To different extents, [Ru(CO)3Cl2]2, [Ru(CO)2(DMSO)2Cl2], [Ru(CO)3Cl2(cytosine)] and […] all released CO when added directly to the Mb solution.
The metal carbonyl complex was solubilized in DMSO (9.7 mM stock solution), aliquots of 2 to 32 μl were added directly to 1 ml of deoxy-Mb solutions (66 μM) and absorption spectrum determined immediately after mixing the samples by inversion.

[2] = tested on: aortic rings pre-contracted with phenylephrine; assay: Relaxation of isolated aortic rings pre-contracted with phenylephrine; design: species or system rat
Description: Transverse ring sections of thoracic aorta were isolated from male Lewis rats and suspended under a 2 g tension in an organ bath containing oxygenated Krebs-Henseleit buffer at 37° C. as previously described (23). The relaxation response to cumulative doses of metal carbonyl (dissolved in DMSO—see section 2) was assessed in aortic rings pre-contracted with phenylephrine (3 μM). Control rings were similarly treated by adding equal doses of DMSO (vehicle) to the organ bath.

[3] = Systemic blood pressure and heart rate in anaesthetised Sprague-Dawley rats; type: in vivo, rat
Description: Adult male Sprague-Dawley rats (280-350 g, 8-10 weeks of age) were bred in-house at the Northwick Park Institute for Medical Research (Harrow, UK). Rats were housed in groups of 3 in cages under a 12 h cycle of day/night, with free access to drinking water and fed ad libitum. All surgical procedures were performed in compliance with U.K. Home Office regulations. Rats were anaesthetised in a polycarbonate chamber in a stream of Enflurane™ (Abbot, UK) in oxygen before being transferred onto a mask and continuously supplied with Enflurane™ throughout the experiment with an anaesthetic machine (Aimed, UK). During the surgical procedure the rats were kept at a constant body temperature of 37° C. using a heat pad positioned underneath the operating surface. Specially designed femoral artery and venous catheters were then surgically implanted as previously described (see ref. 40). The catheter in the artery was connected via a luer connector and a three-way tap to a pressure transducer (Gould model P23ID, Statham, USA) for continuous mean arterial pressure (MAP) and heart rate (HR) monitoring. A purpose-built tail-cuff pressure transducer (ADInstruments, UK) was also placed on the tail of the rat and pressure transducer and tail cuff were connected to a polygraph recorder (Grass, Model 7D, Astra-med, UK) pre-calibrated in millimeters of mercury (mmHg). An analogue output provided data for a computer-based data acquisition system (PowerLab™, ADInstruments, UK). The computer-based system was set to record mean arterial pressure (MAP), in mmHg, and heart rate (HR), in beats/min (bpm), for the duration of the experiment. […] Once a stable pressure had been reached, each catheter was flushed with saline containing heparin and no further changes were made to the anaesthetic supply. Ru(CO)3Cl(glycinato) (CO-RM-3) was prepared in stock solutions of 20, 60 and 120 μmoles·ml^−1 by solubilizing the compound in saline. […] CO-RM-3 (or the negative control) was then infused into the animal via the femoral vein catheter as a bolus so that the final concentration infused was 10, 30 or 60 μmoles·kg^−1 body weight. Throughout the experiment MAP and HR were continuously recorded and monitored. Although concentrations of 10, 30 and 60 μmoles·kg^−1 were infused into each animal, the resulting concentrations in the animal were cumulative. Therefore, the final concentration attained in the animal was 10, 40 and 100 μmoles·kg^−1, respectively.
The results are presented in Table 2, where the data shown represents samples taken at baseline (just before infusion of the compound) and directly after administration of 10, 30 and 60 μmoles·kg^−1 of the compound. All data are mean i SEM. n=3 independent experiments. *P<0.05 vs. baseline.

[4] = Cardiac transplant rejection, BALB/c hearts into CBA mice; type: in vivo, mouse; settings: 40 mg/kg i.p. doses
Description: Hearts from male BALB/c mouse (25-30 g) were used as donor organs for transplantation into male CBA mice (25-30 g). Mice were housed in groups of 3 in cages under a 12 h cycle of day/night, with free access to drinking water and fed ad libitum. All surgical procedures were performed in compliance with U.K. Home Office regulations. Animals were anaesthetized by an intraperitoneal injection of ketamine/xylazine during all procedures. The surgical technique involved the transplantation of the cardiac allograft into the recipient's neck as previously described (51). Graft survival was assessed daily by palpation, and rejection was diagnosed by cessation of ventricular contractions.
Ru(CO)3Cl(glycinato) was dissolved in 0.1 ml saline and administered intraperitoneally. All doses are 40 mg/kg of Ru(CO)3Cl(glycinato). The donors received two doses of Ru(CO)3Cl(glycinato) respectively at 1 day and 15 min prior to cardiac harvest. The recipients received doses of Ru(CO)3Cl(glycinato) at 1 day before surgery, 30 min prior to cardiac reperfusion and 1 h after transplantation (Day 0). Thereafter, graft recipients received a daily dose of Ru(CO)3Cl(glycinato) from day 1 to day 8(inclusive) post-transplant. In the control group, recipients received an equivalent dose of saline (vehicle) 1 day before and each day (days 1 to 8) after cardiac transplantation. Carprofen (0.01 mg) was given subcutaneously for pain relief immediately after transplantation to all animals. The results of this study are shown in FIG. 10. n=5 for each group. *p<0.002 vs. control. BALE/c hearts transplanted into CBA mice following treatment with saline (control group) underwent rejection'very rapidly. 100% of hearts stopped beating within 9 days of transplantation.

RAW 264.7 macrophages [5] = assay: Nitrite (NO) production in LPS-stimulated macrophages, Griess reagent method; type: cell-based, mouse; settings: 10, 50 and 100 μM, 24 h with LPS 3 μg/ml
Source text: Control cells were exposed to culture medium alone.

RAW 264.7 macrophages [6] = settings: 24 h, LPS 3 μg/ml with or without CO-RM-3 10, 50 and 100 μM
Description: Mouse RAW 264.7 macrophages were cultured in 24 wells using DMEM medium Confluent cells were incubated for 24 h with E. Coli lipopolysaccharide (LPS, 3 μg/ml) in the presence or absence of increasing concentrations of CO-RM-3 (10, 50 and 100 μM). Control cells were exposed to culture medium alone. […] Cell viability was also assessed in macrophages 24 h after treatment with the various agents as described in reference 47.

[7] = cumulative doses, phenylephrine 3 μM
[8] = directly after i.v. bolus 10 μmol/kg
[9] = directly after i.v. bolus 30 μmol/kg (cumulative 40)

Structure (SMILES): NCC(=O)O.[C-]#[O+].[C-]#[O+].[C-]#[O+].[Cl][Ru] [CO-RM-3, Ru(CO)3Cl (NH2CH2CO2)]
- MbCO formation / CO release when added directly to deoxy-Mb solution ([1]; listed as [Bu(CO)3(glycinate)Cl]): released CO
- MbCO formation / CO release when added directly to deoxy-Mb solution ([1]; listed as [Ru(CO)3(glycinato)Cl]): high release of CO
- vasodilatory effect on pre-contracted aortic rings (in words) ([2]; consecutive additions): elicited significant vasodilatation
- % Relaxation, 1st addition [2, 7]: 36%
- % Relaxation, 2nd addition [2, 7]: 66.6%
- % Relaxation, 3rd addition [2, 7]: 68.3%
- transient decrease in MAP ([3]; 10 μmoles·kg^−1 bolus infusion): 6±2 mmHg
- transient decrease in MAP ([3]; 30 μmoles·kg^−1 bolus infusion): 8±3 mmHg
- transient decrease in MAP ([3]; 60 μmoles·kg^−1 bolus infusion): 14±0.3 mmHg
- effects on HR or MAP (in words) ([3]; 10, 30 or 60 μmoles·kg^−1): concentration-dependent transient decrease in MAP
- period of return of MAP to baseline ([3]; after bolus infusion): 10 min
- HR, 10 μmol.kg^−1 [3, 8]: 276 ± 20 bpm
- MAP, 10 μmol.kg^−1 [3, 8]: 73 ± 2 mmHg
- HR, 30 μmol.kg^−1 [3, 9]: 261 ± 22 bpm
- MAP, 30 μmol.kg^−1 [3, 9]: 72 ± 7 mmHg
- MAP, 60 μmol.kg^−1 ([3]; directly after i.v. bolus 60 μmol/kg (cumulative 100)): 65 ± 4* mmHg
- HR, 60 μmol.kg^−1 ([3]; directly after i.v. bolus 60 μmol/kg (cumulative 100), listed as Ru(CO)3Cl(glycinate)): 253 ± 23 bpm
- HR, 60 μmol.kg^−1 ([3]; directly after i.v. bolus 60 μmol/kg (cumulative 100), listed as Ru(CO)3Cl(glycinato)): 253±23 bpm
- MAP, Baseline ([3]; just before infusion of the compound): 79 ± 2 mmHg
- HR, Baseline ([3]; just before infusion of the compound, listed as Ru(CO)3Cl(glycinate)): 270 ± 20 bpm
- HR, Baseline ([3]; just before infusion of the compound, listed as Ru(CO)3Cl(glycinato)): 270±20 bpm
- survival time of transplanted hearts (in words) ([4]; vs. saline control): significantly prolonged
- hearts still beating ([4]; 18 days after transplantation): 100%
- mice without any sign of rejection ([4]; 25 days after heart transplantation): 60%
- transplanted hearts still viable ([4]; at 30 days): 40%
- nitrite generation in LPS-stimulated macrophages (RAW 264.7 macrophages [5]): significantly attenuated nitrite generation in a concentration dependent manner
- cell viability of macrophages (RAW 264.7 macrophages [6]): did not affect cell viability
